Assay results: patent publication US12180207B2 (ARRAY BIOPHARMA INC., priority 2018, dated 2024)

Columns and labels:
[1] = biological target: recombinant human FGFR3 (amino acids R397-T806) (Homo sapiens (Human), UniProt P22607); test: FGFR3 enzyme activity assay (LanthaScreen TR-FRET); type: biochemical; conditions: 25 μM ATP, 10 min incubation at 22° C., average of multiple determinations if made, read-out: FGFR3 Enz FRET IC50
Outline: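 GST-HIS6-tagged human FGFR3 (R397-T806) was reacted with 100 nM Alexa Fluor 647-Poly-GT substrate and 25 μM ATP plus compound in HEPES/MgCl2/Triton buffer, pH 7.5, 2% DMSO, for 10 min at 22 °C.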

[2] = biological target: phosphorylated FGFR3 (SEQ ID NO: 5, amino acids 449 to 759) (Homo sapiens (Human), UniProt P22607); test: FGFR enzyme binding assay (HTRF tracer displacement), FGFR3; conditions: 5 nM phosphorylated FGFR3, average of multiple determinations if made
Chain of phosphorylated FGFR3 (SEQ ID NO: 5, amino acids 449 to 759) (P22607 449-759): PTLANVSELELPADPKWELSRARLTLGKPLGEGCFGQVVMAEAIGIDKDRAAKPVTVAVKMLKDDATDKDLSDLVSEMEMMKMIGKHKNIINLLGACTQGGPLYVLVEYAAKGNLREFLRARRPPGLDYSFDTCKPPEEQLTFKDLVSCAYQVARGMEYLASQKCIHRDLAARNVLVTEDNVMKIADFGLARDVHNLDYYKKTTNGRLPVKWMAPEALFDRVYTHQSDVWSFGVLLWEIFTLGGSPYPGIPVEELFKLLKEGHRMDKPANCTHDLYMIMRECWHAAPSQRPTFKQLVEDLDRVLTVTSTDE
Outline: (§1)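 Compounds were tested for displacement of a tracer from human FGFR kinase in a time-resolved FRET binding format. After 60 minutes at 22° C, signal was read at two wavelengths and converted to percent of control, normalised between untreated wells and 1 μM reference inhibitor.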

[3] = biological target: FGFR3 (SEQ ID NO: 5, amino acids 449-759) (Homo sapiens (Human), UniProt P22607); test: LC/MS FGFR3 kobs assay (covalent protein modification); type: binding; conditions: 500 nM FGFR3, 3 μM compound
Chain of FGFR3 (SEQ ID NO: 5, amino acids 449-759) (P22607 449-759): as above
Outline: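 Timed reactions were stopped with 0.4% formic acid, and covalent adduct formation was measured by LC/MS on a Q-TOF with deconvolution of protein masses. Modified signal was normalized to DMSO-control unmodified protein at each time point; percent unmodified protein was fit to exponential decay to give kobs.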

[4] = biological target: recombinant human FGFR2 cytoplasmic domain (amino acids 403-822) (Homo sapiens (Human), UniProt P21802); test: FGFR2 enzyme activity assay (LanthaScreen TR-FRET); type: biochemical; conditions: 15 μM ATP, 20 min incubation at 22° C., average of multiple determinations if made, read-out: FGFR2 Enz FRET IC50
Chain of recombinant human FGFR2 cytoplasmic domain (amino acids 403-822) (P21802 402-821): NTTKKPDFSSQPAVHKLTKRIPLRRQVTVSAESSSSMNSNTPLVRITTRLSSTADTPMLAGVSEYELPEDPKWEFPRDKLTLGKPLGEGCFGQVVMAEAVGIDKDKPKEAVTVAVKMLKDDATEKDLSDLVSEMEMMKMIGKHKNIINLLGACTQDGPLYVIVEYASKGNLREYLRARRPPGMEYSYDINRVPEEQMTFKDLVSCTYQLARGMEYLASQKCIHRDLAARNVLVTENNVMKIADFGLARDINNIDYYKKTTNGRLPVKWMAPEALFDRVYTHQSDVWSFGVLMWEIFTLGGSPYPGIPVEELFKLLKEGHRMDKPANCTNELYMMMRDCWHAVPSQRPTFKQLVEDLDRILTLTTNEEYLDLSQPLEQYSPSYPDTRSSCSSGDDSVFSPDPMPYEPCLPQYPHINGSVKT
Outline: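 His-tagged FGFR2 cytoplasmic domain ([…]) with 100 nM Alexa Fluor 647-poly-GT peptide and 15 μM ATP in HEPES/MgCl2/Triton buffer, pH 7.5, 2% DMSO, 20 min at 22 °C. EDTA-quenched, Eu-PY20 antibody added, TR-FRET read after 60 min.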

[5] = biological target: T1, HEK-293 cells transfected with dox-inducible human wild type FGFR3 (Homo sapiens (Human), UniProt P22607); test: FGFR3 pFGFR cell assay (ELISA); type: cell-based; conditions: HEK-293 dox-inducible FGFR3, 1 hour compound, 100 ng/ml FGF-acidic
T1 sequence (P22607 23-806): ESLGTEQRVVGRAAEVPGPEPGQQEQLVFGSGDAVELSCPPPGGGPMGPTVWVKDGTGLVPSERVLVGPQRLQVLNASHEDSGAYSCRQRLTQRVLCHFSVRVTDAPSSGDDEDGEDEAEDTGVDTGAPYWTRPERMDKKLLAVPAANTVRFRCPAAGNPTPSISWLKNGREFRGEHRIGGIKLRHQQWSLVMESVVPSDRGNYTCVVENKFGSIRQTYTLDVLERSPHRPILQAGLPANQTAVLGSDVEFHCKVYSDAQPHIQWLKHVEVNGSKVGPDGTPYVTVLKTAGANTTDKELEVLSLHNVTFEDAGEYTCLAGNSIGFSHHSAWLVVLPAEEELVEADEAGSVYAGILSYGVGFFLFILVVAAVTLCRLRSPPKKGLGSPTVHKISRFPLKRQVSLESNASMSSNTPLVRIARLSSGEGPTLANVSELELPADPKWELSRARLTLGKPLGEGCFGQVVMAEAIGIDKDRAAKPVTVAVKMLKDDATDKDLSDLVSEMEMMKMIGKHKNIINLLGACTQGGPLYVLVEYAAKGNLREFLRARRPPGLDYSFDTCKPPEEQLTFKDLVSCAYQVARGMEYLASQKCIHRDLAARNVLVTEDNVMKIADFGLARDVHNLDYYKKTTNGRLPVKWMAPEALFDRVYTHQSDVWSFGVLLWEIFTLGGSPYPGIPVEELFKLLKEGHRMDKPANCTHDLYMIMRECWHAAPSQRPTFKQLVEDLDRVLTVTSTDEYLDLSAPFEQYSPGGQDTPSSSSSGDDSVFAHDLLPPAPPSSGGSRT
Protocol: FGFR3 pFGFR Cell Assay: • HEK-293 cells transfected with dox-inducible human wild type FGFR3 (SEQ ID NO: 5) were plated in a collagen or poly-D-lysine coated 96 well flat bottom plates at 4×10^5 cells/well in complete DMEM medium containing 10% FBS and 1 μg/ml doxycycline and allowed to attach for 24 h at 37° C., 5% CO2. Cells were treated with compound using 1:3 serial dilutions with a top final concentration of 5 μM. Compound was incubated on cells for 1 hour at 37° C., 5% CO2. Cells were then stimulated with a final concentration of 100 ng/ml human FGF-acidic for 5 minutes at 37° C., 5% CO2. Medium was removed and cells were lysed with lysis buffer containing phosphatase and protease inhibitors. Phospho FGFR3 was measured by ELISA (R&D Systems cat DYC2719). The ELISA captures total FGFR3 and detects total phospho tyrosine. Optical density was measured for each well using a Versamax reader at a wavelength of 450 nm. 100 POC was determined using no test compounds and 0 POC was determined using a control compound. The POC values were fit to a 4-parameter logistic curve as a function of the concentration of the compound, and the IC50 value is the point where the curve crosses 50 POC.

[6] = biological target: recombinant human FGFR1 catalytic domain (amino acids 308-731) (Homo sapiens (Human), UniProt P11362); test: FGFR1 enzyme activity assay (LanthaScreen TR-FRET); type: biochemical; conditions: 20 min incubation at 22° C., average of multiple determinations if made, read-out: FGFR1 Enz FRET IC50
Chain of recombinant human FGFR1 catalytic domain (amino acids 308-731) (P11362 other isoform, or with tags, fused parts or gaps): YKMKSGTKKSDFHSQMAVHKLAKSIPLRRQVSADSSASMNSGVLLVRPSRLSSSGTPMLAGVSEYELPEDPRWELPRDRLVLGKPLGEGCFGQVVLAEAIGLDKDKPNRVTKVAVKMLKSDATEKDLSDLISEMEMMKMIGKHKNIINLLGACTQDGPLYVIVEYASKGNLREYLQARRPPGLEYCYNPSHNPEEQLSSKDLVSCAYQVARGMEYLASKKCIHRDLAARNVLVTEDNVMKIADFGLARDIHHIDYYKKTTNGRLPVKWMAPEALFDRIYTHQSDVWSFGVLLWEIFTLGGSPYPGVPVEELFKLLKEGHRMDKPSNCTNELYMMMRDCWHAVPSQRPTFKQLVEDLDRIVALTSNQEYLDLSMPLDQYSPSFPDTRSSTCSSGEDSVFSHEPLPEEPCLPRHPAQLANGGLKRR
Outline: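 His-tagged FGFR1 kinase domain with 100 nM Alexa Fluor 647-poly-GT peptide and ATP in pH 7.5 HEPES/MgCl2 buffer with 2% DMSO, 20 min at 22 °C. Quenched with EDTA plus 2 nM Eu-PY20 antibody and read after 60 min. IC50 comes from a 4-parameter fit of percent of control.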

[7] = biological target: dephosphorylated FGFR1 (SEQ ID NO: 1, amino acids 458 to 765) (Homo sapiens (Human), UniProt P11362); test: FGFR enzyme binding assay (HTRF tracer displacement), FGFR1; conditions: 5 nM dephosphorylated FGFR1, average of multiple determinations if made
Chain of dephosphorylated FGFR1 (SEQ ID NO: 1, amino acids 458 to 765) (P11362 458-765): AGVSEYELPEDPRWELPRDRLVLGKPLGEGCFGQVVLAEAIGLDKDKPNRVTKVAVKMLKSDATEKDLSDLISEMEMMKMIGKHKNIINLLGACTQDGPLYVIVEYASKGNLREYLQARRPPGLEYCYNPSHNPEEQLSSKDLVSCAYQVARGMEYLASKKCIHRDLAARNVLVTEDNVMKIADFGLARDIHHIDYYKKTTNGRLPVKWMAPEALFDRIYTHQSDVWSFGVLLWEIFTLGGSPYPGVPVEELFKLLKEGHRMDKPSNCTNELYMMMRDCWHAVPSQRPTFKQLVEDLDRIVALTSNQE
Outline: as §1

[8] = biological target: T1, HEK-293 cells transfected with dox-inducible human wild type FGFR3; test: FGFR3 pERK cell assay; type: cell-based; conditions: HEK-293 dox-inducible FGFR3, 1 hour compound, 100 ng/ml FGF-acidic; maximum concentration 5 μM
Protocol: (§2) FGFR3 pERK Cell Assay: • HEK-293 cells transfected with dox-inducible human wild type FGFR3 (SEQ ID NO: 5) were plated in a collagen or poly-D-lysine coated 96 well flat bottom plates at 4×10^5 cells/well in complete DMEM medium containing 10% FBS and 1 μg/ml doxycycline and allowed to attach for 24 h at 37° C., 5% CO2. Cells were treated with compound using 1:3 serial dilutions with a maximum final concentration of 5 μM. Compound was incubated on cells for 1 hour at 37° C., 5% CO2. Cells were then stimulated with a final concentration of 100 ng/ml human FGF-acidic (R&D Systems Cat number 232-FA/CF) for 5 minutes at 37° C., 5% CO2. Medium was removed, and cells were lysed with lysis buffer containing phosphatase and protease inhibitors. Phospho ERK1/2 was measured using the Meso Scale Discovery sandwich assay (Meso Scale Discovery cat. no. K151DWD). The assay captures phospho ERK1/2 and detects with a sulfo-tagged total ERK1/2 antibody. The chemiluminescent signal was read on the Sector Imager Plate reader. 100 POC was determined using no test compounds and 0 POC was determined using a control compound. The POC values were fit to a 4-parameter logistic curve as a function of the concentration of the compound, and the IC50 value is the point where the curve crosses 50 POC.

[9] = biological target: HEK-293 cells transfected with dox-inducible human wild type FGFR1 (Homo sapiens (Human), UniProt P11362); test: FGFR1 pERK cell assay; type: cell-based; conditions: HEK-293 dox-inducible FGFR1, 1 hour compound, 100 ng/ml FGF-acidic; maximum concentration 5 μM
Chain of HEK-293 cells transfected with dox-inducible human wild type FGFR1 (P11362 22-822): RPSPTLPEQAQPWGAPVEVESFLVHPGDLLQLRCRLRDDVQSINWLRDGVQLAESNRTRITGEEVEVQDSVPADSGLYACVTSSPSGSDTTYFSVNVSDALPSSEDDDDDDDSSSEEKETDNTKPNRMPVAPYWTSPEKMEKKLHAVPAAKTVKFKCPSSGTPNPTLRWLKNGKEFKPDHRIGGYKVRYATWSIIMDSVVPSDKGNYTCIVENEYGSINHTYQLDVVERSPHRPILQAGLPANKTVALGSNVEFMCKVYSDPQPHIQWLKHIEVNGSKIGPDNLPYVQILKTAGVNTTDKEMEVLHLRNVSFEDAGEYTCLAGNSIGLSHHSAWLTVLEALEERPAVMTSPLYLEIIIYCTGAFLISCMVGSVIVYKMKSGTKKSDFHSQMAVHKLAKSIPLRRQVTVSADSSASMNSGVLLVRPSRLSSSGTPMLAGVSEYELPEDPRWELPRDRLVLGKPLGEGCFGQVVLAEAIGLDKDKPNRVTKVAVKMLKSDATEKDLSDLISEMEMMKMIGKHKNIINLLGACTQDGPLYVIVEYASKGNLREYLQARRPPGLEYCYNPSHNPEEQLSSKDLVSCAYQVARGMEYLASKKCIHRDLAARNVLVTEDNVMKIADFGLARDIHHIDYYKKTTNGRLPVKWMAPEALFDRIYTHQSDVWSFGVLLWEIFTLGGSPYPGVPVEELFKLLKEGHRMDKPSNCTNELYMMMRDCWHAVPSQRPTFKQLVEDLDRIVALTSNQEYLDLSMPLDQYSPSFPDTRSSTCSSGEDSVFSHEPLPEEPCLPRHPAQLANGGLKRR
Protocol: as §2, with “FGFR1” for “FGFR3”, “doxycycline(dox)-inducible” for “dox-inducible”, “1)” for “5)”, “Dulbecco's Modified Eagle Medium (DMEM)” for “DMEM medium”, “compound” for “compounds”

Chain of recombinant human FGFR3 (amino acids R397-T806) (P22607 397-806): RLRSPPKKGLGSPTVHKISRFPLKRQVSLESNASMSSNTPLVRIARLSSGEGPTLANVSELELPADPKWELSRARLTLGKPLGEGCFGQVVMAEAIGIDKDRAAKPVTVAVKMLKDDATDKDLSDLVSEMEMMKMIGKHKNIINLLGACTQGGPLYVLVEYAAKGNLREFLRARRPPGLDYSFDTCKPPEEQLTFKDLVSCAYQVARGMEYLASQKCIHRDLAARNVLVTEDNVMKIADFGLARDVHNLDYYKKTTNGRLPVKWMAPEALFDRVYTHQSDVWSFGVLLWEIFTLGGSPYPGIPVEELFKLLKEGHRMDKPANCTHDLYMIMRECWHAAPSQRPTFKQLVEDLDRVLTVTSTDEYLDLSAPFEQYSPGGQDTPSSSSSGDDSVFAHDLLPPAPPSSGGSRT

Row | Compound | IC50 [1] [nM] | IC50 [2] [nM] | FGFR3 Enz kobs [3] [min⁻¹] | IC50 [4] [nM] | IC50 [5] [nM] | IC50 [6] [nM] | IC50 [7] [nM] | IC50 [8] [nM] | IC50 [9] [nM]
1 | C=CC(=O)N1CCC(C(=O)N2CCC(n3cc(-c4cc(OC)c5c(C#N)cnn5c4)cn3)CC2)CC1 [Example 12, 6-(1-(1-(1-acryloylpiperidine-4-carbonyl)piperidin-4-yl)-1H-pyrazol-4-yl)-4-methoxypyrazolo[1,5-a]pyridine-3-carbonitrile] | 3 | 32 | 0.00231 | 3 | 242 | – | – | – | –
2 | C=C(F)C(=O)N1CC(C(=O)N2CCC(n3cc(-c4cc(OC)c5c(C#N)cnn5c4)cn3)CC2)C1 [Example 140, 6-(1-(1-(1-(2-fluoroacryloyl)azet-idine-3-carbonyl)piperidin-4-yl)-1H-pyrazol-4-yl)-4-methoxypyrazolo [1,5-a]pyridine-3-carbonitrile] | – | – | – | – | – | – | – | 105 | 206
3 | C=CS(=O)(=O)N1CC[C@H](C(=O)N2CCC(n3cc(-c4cc(OC)c5c(C#N)cnn5c4)cn3)CC2)C1 [Example 189, (S)-4-methoxy-6-(1-(1-(1-(vinylsulfonyl)pyrrol-idine-3-carbonyl)piperidin-4-yl)-1H-pyrazol-4-yl)pyrazolo[1,5-a]pyridine-3-carbonitrile] | 4 | 3 | 0.0728 | 3 | 9 | – | – | – | –
4 | COc1cc(-c2cnn(C3CN(CC4CN(C(=O)/C=C/CN(C)C)C4)C3)c2)cn2ncc(C#N)c12 [Example 148] | – | – | – | – | 351 | – | – | – | –
5 | COc1cc(-c2cnn(C3CN(C(=O)C4CN(C(=O)/C=C/CN(C)C)C4)C3)c2)cn2ncc(C#N)c12 [Example 150] | – | – | – | – | 2320 | – | – | – | –
6 | C=CS(=O)(=O)N[C@H]1CC[C@H](C(=O)N2CCC(n3cc(-c4cc(OC)c5c(C#N)cnn5c4)cn3)CC2)CC1 [Example 187, N-((1r,4r)-4-(4-(4-(3-cyano-4-methoxypyrazolo[1,5-a]pyridin-6-yl)-1H-pyrazol-1-yl)piperidine-1-carbonyl)cyclohexyl) ethenesulfonamide] | – | – | – | – | 74 | – | – | – | –

More lines, now with the values ahead:

Row | IC50 [1] [nM] | IC50 [2] [nM] | FGFR3 Enz kobs [3] [min⁻¹] | IC50 [4] [nM] | IC50 [5] [nM] | IC50 [6] [nM] | IC50 [7] [nM] | IC50 [8] [nM] | IC50 [9] [nM] | Compound
7 | 5 | 4 | 0.02572 | 7 | 14 | 19 | 50 | – | – | C=CS(=O)(=O)N1CCC2(CC1)CC(C(=O)N1CCC(n3cc(-c4cc(OC)c5c(C#N)cnn5c4)cn3)CC1)C2 [Example 195, 4-methoxy-6-(1-(1-(7-(vinylsulfonyl)-7-azaspiro[3.5]nonane-2-carbonyl)piperidin-4-yl)-1H-pyrazol-4-yl)pyrazolo[1,5-a]pyridine-3-carbonitrile]
8 | 3 | 12 | 0.1008 | 9 | 12 | 14 | 70 | – | – | C=CS(=O)(=O)N1CC(C(=O)N2CCC(n3cc(-c4cc(OC)c5c(C#N)cnn5c4)cn3)CC2)C1 [Example 192, 4-methoxy-6-(1-(1-(1-(vinylsulfonyl)azetidine-3-carbonyl)piperidin-4-yl)-1H-pyrazol-4-yl)pyrazolo[1,5-a]pyridine-3-carbonitrile]
9 | – | – | – | – | 26 | – | – | – | – | C=CS(=O)(=O)Nc1ccc(C(=O)N2CCC(n3cc(-c4cc(OC)c5c(C#N)cnn5c4)cn3)CC2)cc1 [Example 196, N-(4-(4-(4-(3-cyano-4-methoxypyrazolo[1,5-a]pyridin-6-yl)-1H-pyrazol-1-yl)piperidine-1-carbonyl)phenyl)ethenesulfonamide]
10 | – | – | – | – | 20 | – | – | – | – | C=CC(=O)Nc1ccc(S(=O)(=O)N2CCC(n3cc(-c4cc(OC)c5c(C#N)cnn5c4)cn3)CC2)cc1 [Example 49, N-(4-((4-(4-(3-cyano-4-methoxypyrazolo[1,5-a]pyridin-6-yl)-1H-pyrazol-1-yl)piperidin-1-yl)sulfonyl)phenyl)acryl-amide (2,2,2-trifluoroacetate)]
11 | 3 | 4 | 0.06081 | 5 | 12 | – | – | – | – | C=CS(=O)(=O)N1CC[C@@H](C(=O)N2CCC(n3cc(-c4cc(OC)c5c(C#N)cnn5c4)cn3)CC2)C1 [Example 185]
